Experimental findings from patent US11078193B2 (priority 2014, dated 2021) are described below.

In data set [1] the test system is HBV. Kind of data set: anti HBV activity, HepG2.117 inducibly HBV producing cell line (Tet-off), intracellular HBV DNA by realtime PCR. Type of data set: cell-based. The conditions noted are these: Hepatitis B virus, 72 h, HepG2.117 cells, 3 days of treatment.
A short description of data set [2]: Cytotoxicity, HepG2 cells, Resazurin assay. Type of data set: cell-based. The following applies: human.

Broadly, the EC50 is the concentration at which the effect is half-maximal. Read a high EC50 as a need for much substance. A word on the CC50: it is the concentration at which the toxic effect on the cells reaches its halfway point. A low value points to harm at low concentration. For the molecule `CC[C@@H](C)NS(=O)(=O)c1cn(C)c(C(=O)Nc2ccnc(C#N)c2)c1F` [Compound 67], the EC50 in data set [1] is 30 nM. For the same molecule, in data set [2], the CC50 at 4 days was over 25000 nM.
As to `Cc1cc(NC(=O)c2c(F)c(S(=O)(=O)NC3(C)CC(F)(F)C3)cn2C)cc(Cl)n1` [Compound 130, N-(2-chloro-6-methyl-4-pyridyl)-4-[(3,3-difluoro-1-methyl-cyclobutyl)sulfamoyl]-3-fluoro-1-methyl-pyrrole-2-carboxamide], in data set [1], the EC50 came out at 60 nM. In data set [2], this molecule registered a CC50 at 4 days of over 25000 nM.
The like results for `CC[C@@H](C)NS(=O)(=O)c1cn(C)c(C(=O)Nc2ccnc(Cl)c2)c1F` [Compound 69, N-(2-chloro-4-pyridyl)-3-fluoro-1-methyl-4-[[(1R)-1-methylpropyl]sulfamoyl]pyrrole-2-carboxamide] were, in that order, 30 nM and over 25000 nM.
The like results for `C[C@@H](NS(=O)(=O)c1cn(C)c(C(=O)Nc2ccc(F)c(C#N)n2)c1C#N)C(F)(F)F` [Compound 181, 3-cyano-N-(6-cyano-5-fluoro-2-pyridyl)-1-methyl-4-[[(1R)-2,2,2-trifluoro-1-methyl-ethyl]sulfamoyl]pyrrole-2-carboxamide] were, in that order, 1000 nM and over 25000 nM.
The like results for `Cc1cc(NC(=O)c2c(F)c(S(=O)(=O)NC3(C(F)(F)F)CCC3)cn2C)cc(C#N)n1` [Compound 171, N-(2-cyano-6-methyl-4-pyridyl)-3-fluoro-1-methyl-4-[[1-(trifluoromethyl)cyclobutyl]sulfamoyl]pyrrole-2-carboxamide] were, in that order, 100 nM and over 25000 nM.
In data set [1], `C[C@@H](NS(=O)(=O)c1cn(C)c(C(=O)Nc2ccc(F)nc2F)c1Cl)C(F)(F)F` [Compound 77, 3-chloro-N-(2,6-difluoro-3-pyridyl)-1-methyl-4-[[(1R)-2,2,2-trifluoro-1-methyl-ethyl]sulfamoyl]pyrrole-2-carboxamide] displayed an EC50 of 300 nM. The same molecule came in with a 50% cytotoxic concentration (CC50) at 4 days in data set [2] of over 25000 nM.
Take `CC[C@@H](C)NS(=O)(=O)c1cn(C)c(C(=O)Nc2ccnc(C(F)(F)F)c2)c1Cl` [Compound 70, 3-chloro-1-methyl-4-[[(1R)-1-methylpropyl]sulfamoyl]-N-[2-(trifluoromethyl)-4-pyridyl]pyrrole-2-carboxamide]: the EC50 in data set [1] was 150 nM. For the same molecule, in data set [2], the CC50 at 4 days was over 25000 nM.
The like results for `C[C@H](NS(=O)(=O)c1cn(C)c(C(=O)Nc2ccnc(Cl)c2)c1F)C(C)(F)F` [Compound 59, N-(2-chloro-4-pyridyl)-4-[[(1S)-2,2-difluoro-1-methyl-propyl]sulfamoyl]-3-fluoro-1-methyl-pyrrole-2-carboxamide] were, in that order, 70 nM and over 25000 nM.
The like results for `C[C@@H](NS(=O)(=O)c1cn(C)c(C(=O)Nc2cc(F)nc(F)c2F)c1Cl)C(F)(F)F` [Compound 43, 3-chloro-1-methyl-4-[[(1R)-2,2,2-trifluoro-1-methyl-ethyl]sulfamoyl]-N-(2,3,6-trifluoro-4-pyridyl)pyrrole-2-carboxamide] were, in that order, 80 nM and over 25000 nM.
The like results for `Cn1cc(S(=O)(=O)NC2(C(F)(F)F)CCC2)c(F)c1C(=O)Nc1ccnc(C(F)F)c1F` [Compound 165, N-[2-(difluoromethyl)-3-fluoro-4-pyridyl]-3-fluoro-1-methyl-4-[[1-(trifluoromethyl)cyclobutyl]sulfamoyl]pyrrole-2-carboxamide] were, in that order, 3 nM and over 25000 nM.
The molecule `Cc1c(S(=O)(=O)N[C@H](C)C(F)(F)F)c(F)c(C(=O)Nc2ccnc(C#N)c2)n1C` [Compound 71, N-(2-cyano-4-pyridyl)-3-fluoro-1,5-dimethyl-4-[[(1R)-2,2,2-trifluoro-1-methyl-ethyl]sulfamoyl]pyrrole-2-carboxamide] had an EC50 in data set [1] of 20 nM. For the same molecule, the CC50 at 4 days in data set [2] was over 25000 nM.
The like results for `C[C@@H](NS(=O)(=O)c1cn(C)c(C(=O)Nc2ccnc(C(F)(F)F)c2)c1Cl)C(C)(F)F` [Compound 150, 3-chloro-4-[[(1R)-2,2-difluoro-1-methyl-propyl]sulfamoyl]-1-methyl-N-[2-(trifluoromethyl)-4-pyridyl]pyrrole-2-carboxamide] were, in that order, 90 nM and over 25000 nM.
The like results for `Cn1cc(S(=O)(=O)NC2(C)CC(F)(F)C2)c(F)c1C(=O)Nc1ccnc(F)c1` [Compound 133, 4-[(3,3-difluoro-1-methyl-cyclobutyl)sulfamoyl]-3-fluoro-N-(2-fluoro-4-pyridyl)-1-methyl-pyrrole-2-carboxamide] were, in that order, 50 nM and over 25000 nM.
The like results for `Cn1cc(S(=O)(=O)NC2CCC2(F)F)c(F)c1C(=O)Nc1ccnc(C(F)F)c1` (centres unmarked) [Compound 127, 4-[(2,2-difluorocyclobutyl)sulfamoyl]-N-[2-(difluoromethyl)-4-pyridyl]-3-fluoro-1-methyl-pyrrole-2-carboxamide] were, in that order, 50 nM and over 25000 nM.
Consider `C[C@@H](NS(=O)(=O)c1cn(C)c(C(=O)Nc2ccnc(F)c2F)c1Cl)C(F)(F)F` [Compound 138, 3-chloro-N-(2,3-difluoro-4-pyridyl)-1-methyl-4-[[(1R)-2,2,2-trifluoro-1-methyl-ethyl]sulfamoyl]pyrrole-2-carboxamide], for which the EC50 in data set [1] came out at 90 nM. In data set [2], this molecule registered a CC50 at 4 days of over 25000 nM.
The like results for `Cn1cc(S(=O)(=O)NC2(C(F)(F)F)CCC2)c(F)c1C(=O)Nc1ccnc(Cl)c1F` [Compound 120, N-(2-chloro-3-fluoro-4-pyridyl)-3-fluoro-1-methyl-4-[[1-(trifluoromethyl)cyclobutyl]sulfamoyl]pyrrole-2-carboxamide] were, in that order, 5 nM and over 25000 nM.
In the case of `CC(C)NS(=O)(=O)c1cn(C)c(C(=O)Nc2ccnc(C#N)c2)c1F` [Compound 27, N-(2-cyano-4-pyridyl)-3-fluoro-4-(isopropylsulfamoyl)-1-methyl-pyrrole-2-carboxamide], the EC50 in data set [1] was determined as 100 nM. Moreover, the CC50 at 4 days in data set [2] is over 25000 nM.
The like results for `Cc1cc(NC(=O)c2c(F)c(S(=O)(=O)N[C@H](C)C(C)(F)F)cn2C)cc(Br)n1` [Compound 157, N-(2-bromo-6-methyl-4-pyridyl)-4-[[(1R)-2,2-difluoro-1-methyl-propyl]sulfamoyl]-3-fluoro-1-methyl-pyrrole-2-carboxamide] were, in that order, 90 nM and over 25000 nM.
The like results for `C[C@@H](NS(=O)(=O)c1cn(C)c(C(=O)Nc2nc(F)c(F)cc2F)c1Cl)C(F)(F)F` [Compound 184, 3-chloro-1-methyl-4-[[(1R)-2,2,2-trifluoro-1-methyl-ethyl]sulfamoyl]-N-(3,5,6-trifluoro-2-pyridyl)pyrrole-2-carboxamide] were, in that order, 1200 nM and over 25000 nM.
For the molecule `C[C@@H](NS(=O)(=O)c1cc(C(=O)Nc2ccnc(F)c2)n(C)c1)C(C)(F)F` [Compound 102, 4-[[(1R)-2,2-difluoro-1-methyl-propyl]sulfamoyl]-N-(2-fluoro-4-pyridyl)-1-methyl-pyrrole-2-carboxamide], in data set [1], it took 180 nM to reach a half-maximal effect (EC50). The CC50 at 4 days in data set [2] was over 25000 nM.
The like results for `C[C@@H](NS(=O)(=O)c1cn(C)c(C(=O)Nc2ccc(F)cn2)c1Cl)C(F)(F)F` [Compound 51, 3-chloro-N-(5-fluoro-2-pyridyl)-1-methyl-4-[[(1R)-2,2,2-trifluoro-1-methyl-ethyl]sulfamoyl]pyrrole-2-carboxamide] were, in that order, 600 nM and over 25000 nM.
Molecule `C[C@@H](NS(=O)(=O)c1cn(C)c(C(=O)Nc2ccnc(C#N)c2F)c1Cl)C(C)(F)F` [Compound 151, 3-chloro-N-(2-cyano-3-fluoro-4-pyridyl)-4-[[(1R)-2,2-difluoro-1-methyl-propyl]sulfamoyl]-1-methyl-pyrrole-2-carboxamide] registered an EC50 in data set [1] of 30 nM. Further, the CC50 at 4 days in data set [2] is over 25000 nM.
The like results for `C[C@@H](NS(=O)(=O)c1cn(C)c(C(=O)Nc2cc(F)ncc2F)c1Cl)C(F)(F)F` [Compound 140, 3-chloro-N-(2,5-difluoro-4-pyridyl)-1-methyl-4-[[(1R)-2,2,2-trifluoro-1-methyl-ethyl]sulfamoyl]pyrrole-2-carboxamide] were, in that order, 200 nM and over 25000 nM.
The like results for `Cn1cc(S(=O)(=O)NC2(C(F)(F)F)CCC2)c(F)c1C(=O)Nc1ccnc(C#N)c1F` [Compound 167, N-(2-cyano-3-fluoro-4-pyridyl)-3-fluoro-1-methyl-4-[[1-(trifluoromethyl)cyclobutyl]sulfamoyl]pyrrole-2-carboxamide] were, in that order, 5 nM and over 25000 nM.
As to `Cc1cc(NC(=O)c2c(Cl)c(S(=O)(=O)N[C@H](C)C(F)(F)F)cn2C)cc(C#N)n1` [Compound 36, 3-chloro-N-(2-cyano-6-methyl-4-pyridyl)-1-methyl-4-[[(1R)-2,2,2-trifluoro-1-methyl-ethyl]sulfamoyl]pyrrole-2-carboxamide], the EC50 in data set [1] was 150 nM. This molecule came in with a CC50 at 4 days in data set [2] of over 25000 nM.
The like results for `Cn1cc(S(=O)(=O)NC2(C)CC(F)(F)C2)c(F)c1C(=O)Nc1ccnc(Cl)c1` [Compound 54, N-(2-chloro-4-pyridyl)-4-[(3,3-difluoro-1-methyl-cyclobutyl)sulfamoyl]-3-fluoro-1-methyl-pyrrole-2-carboxamide] were, in that order, 20 nM and over 25000 nM.
The like results for `Cn1cc(S(=O)(=O)NC2(CF)CCC2)c(F)c1C(=O)Nc1ccnc(C(F)F)c1` [Compound 128, N-[2-(difluoromethyl)-4-pyridyl]-3-fluoro-4-[[1-(fluoromethyl)cyclobutyl]sulfamoyl]-1-methyl-pyrrole-2-carboxamide] were, in that order, 40 nM and over 25000 nM.
The like results for `Cn1cc(S(=O)(=O)N[C@H]2C[C@@H](O)C2)c(Cl)c1C(=O)Nc1ccnc(Cl)c1` [Compound 93, 3-chloro-N-(2-chloro-4-pyridyl)-4-[(3-hydroxycyclobutyl)sulfamoyl]-1-methyl-pyrrole-2-carboxamide] were, in that order, 330 nM and over 25000 nM.
